pIC50, pKi: −log10 of the molar value. “And” between values parts separate entries of the source, which are not always exact repeats. Identical values can stand only once.
Tests used:
PARP-1 [1] = molecular target: T1, PARP-1 (Homo sapiens, UniProt P09874); assay: Universal Chemiluminescent PARP Assay (Trevigen kit), inhibition of human PARP 1 enzyme; type: biochemical; design: purchased Trevigen 4676-096-K; conditions: recombinant human PARP 1 enzyme, read-out: PARP-inhibitory activity
Method: Inhibitory effects of test compounds against human PARP 1 enzyme are assessed using Trevigen's Universal Chemiluminescent PARP Assay Kit (Trevigen CAT #4676-096-K) following the manufacturer's recommended protocol.
Immediately prior to performing the assay, the following reagents are prepared: A) 20× PARP Assay Buffer is diluted to 1× with dH2O; B) 10× PARP Cocktail, which contains a mixture of NAD and biotinylated NAD, is diluted by the addition of 10× Activated DNA and 1× PARP Assay Buffer. Both the PARP Cocktail and Activated DNA are 1× after the dilution; C) all test compounds are initially dissolved in DMSO, and subsequently serial diluted with 1× PARP Assay Buffer; D) recombinant human PARP 1 enzyme is diluted with 1× PARP Assay Buffer to generate 0.5 unit/15 μL; E) 10× Strep-Diluent is diluted to 1× with 1× PBS/0.1% Triton X-100; F) Just before use, Strep-HRP is diluted 500-fold with 1× Strep-Diluent.
The chemiluminescent assays for PARP activity is performed in white 96-well plates that are pre-coated with histones. […]
The reactions are allowed to proceed for 1 hour at room temperature. […] The light output is immediately determined in a plate reader (EnVision, by Perkin Elmer) set up for measuring chemiluminescence.
The % enzyme activity for each compound is then calculated using the following equation: […]
Target sequence in this assay (P09874 whole entry): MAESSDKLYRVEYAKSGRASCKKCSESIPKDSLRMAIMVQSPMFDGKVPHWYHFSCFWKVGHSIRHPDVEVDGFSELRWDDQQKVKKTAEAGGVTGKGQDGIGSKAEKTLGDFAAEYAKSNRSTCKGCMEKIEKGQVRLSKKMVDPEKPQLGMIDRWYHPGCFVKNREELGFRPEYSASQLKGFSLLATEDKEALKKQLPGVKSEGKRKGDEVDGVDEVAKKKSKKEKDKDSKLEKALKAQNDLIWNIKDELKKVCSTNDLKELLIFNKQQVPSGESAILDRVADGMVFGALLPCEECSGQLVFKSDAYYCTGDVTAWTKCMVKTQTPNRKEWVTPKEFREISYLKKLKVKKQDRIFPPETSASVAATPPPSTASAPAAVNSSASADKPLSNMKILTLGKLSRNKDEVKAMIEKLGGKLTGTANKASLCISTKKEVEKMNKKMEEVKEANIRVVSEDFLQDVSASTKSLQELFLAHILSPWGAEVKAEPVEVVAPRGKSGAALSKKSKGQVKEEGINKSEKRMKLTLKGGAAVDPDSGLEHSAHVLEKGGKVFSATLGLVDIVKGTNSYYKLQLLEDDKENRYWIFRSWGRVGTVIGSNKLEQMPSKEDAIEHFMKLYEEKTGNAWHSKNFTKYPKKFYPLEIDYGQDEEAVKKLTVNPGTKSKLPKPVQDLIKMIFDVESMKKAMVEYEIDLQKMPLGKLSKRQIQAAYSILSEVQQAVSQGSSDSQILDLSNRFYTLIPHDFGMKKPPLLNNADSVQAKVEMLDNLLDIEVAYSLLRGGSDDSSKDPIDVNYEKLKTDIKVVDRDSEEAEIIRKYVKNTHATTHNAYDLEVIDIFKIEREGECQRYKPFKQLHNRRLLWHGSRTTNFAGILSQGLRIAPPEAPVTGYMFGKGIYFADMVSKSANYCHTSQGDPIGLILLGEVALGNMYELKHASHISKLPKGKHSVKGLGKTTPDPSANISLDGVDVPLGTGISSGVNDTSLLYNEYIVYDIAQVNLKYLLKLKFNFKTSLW

CAPAN-1 cells = CAPAN-1 cells in DMEM with FCS (20% v/v), glutamine and antibiotics; cited from earlier work
PARP-1 [2] = molecular target: T1, PARP-1; conditions: literature value, Farmer et al., Nature 2005; read-out: Ki (PARP-1 inhibitor); cited from earlier work
Target sequence in this assay (P09874 whole entry, species assumed): as the sequence (P09874 whole entry) above

[3] = test system: BRCA2-deficient cell line V-C8; conditions: BRCA2-deficient V-C8 compared with BRCA2 wild type control; cited from earlier work

Structure (SMILES) | pIC50 (PARP-1 [1]) | sensitivity to PARP inhibition in clonogenic survival assay (CAPAN-1 cells) | pKi (PARP-1 [2]) | sensitivity in clonogenic survival assay [3]
Cn1ncnc1C1c2n[nH]c(=O)c3cc(F)cc(c23)NCC1c1ccc(F)cc1 (stereo not drawn) [Compound 40, 5-fluoro-9-(4-fluorophenyl)-10-(1-methyl-1H-1,2,4-triazol-5-yl)-7,8,9,10-tetrahydroazepino[4,3,2-de]phthalazin-3(2H)-one] | > 6.10 and 6.52 to 6.60 | – | – | –
O=C(c1cc(Cc2n[nH]c(=O)c3ccccc23)ccc1F)N1CCN(C(=O)C2CC2)CC1 [AZD2281] | – | showing sensitivity to PARP inhibition | – | –
CN(C)Cc1ccc(-c2nc3cccc4c3n2CCNC4=O)cc1 [AG14361] | – | – | 8.30 | exhibited sensitivity
Cc1nc2c(O)cccc2c(=O)[nH]1 [NU1025] | – | – | 7.30 | exhibited sensitivity

Source: patent publication US20130053365A1, “DIHYDROPYRIDOPHTHALAZINONE INHIBITORS OF POLY(ADP-RIBOSE)POLYMERASE (PARP)” (BioMarin Pharmaceutical, Inc., priority 2011, published 2013)
